# In US9006451B1, “2-anilinonicotinyl based chalcones useful as potential anticancer agents and process for preparation thereof” (Council of Scientific and Industrial Research, priority 2013, dated 2015):
# Where two headings read alike, the source gives them in different places.
# Columns and labels:
# Assay type in all cases: cell-based
# [1] = test system: DU-145; experiment: NCI 60 human tumor cell line screen (SRB): DU-145; conditions: DU-145, Prostate, 48 hours, read-out: GI50 values (μM conc.)
# Procedure: (§1) The in vitro anticancer activity studies for these chalcone analogues were carried out at the National Cancer Institute, USA.
# (§2) The chalcone compounds have been tested at NCI, USA, against sixty human tumor cell lines derived from nine cancer types (leukemia, non-small cell lung cancer, colon cancer, CNS cancer, melanoma cancer, ovarian cancer, renal cancer, prostate cancer and breast cancer). For these compounds results are expressed as growth inhibition (GI50) values as per NCI protocol.
# (§3) We describe here the development and implementation of a pilot-scale, in vitro, anticancer drug screen utilizing a panel of 60 human tumor cell lines organized into subpanels representing leukemia, melanoma, and cancers of the lung, colon, kidney, ovary, and central nervous system. The ultimate goal of this disease-oriented screen is to facilitate the discovery of new compounds with potential cell line-specific and/or subpanel-specific antitumor activity. In the current screening protocol, each cell line is inoculated onto microtiter plates, then preincubated for 28 hours. Subsequently, test agents are added in five 10-fold dilutions and the culture is incubated for an additional 48 hours. For each test agent, a dose-response profile is generated. End-point determinations of the cell viability or cell growth are performed by in situ fixation of cells, followed by staining with a protein-binding dye, sulforhodamine B (SRB). The SRB binds to the basic amino acids of cellular macromolecules; the solubilized stain is measured spectrophotometrically to determine relative cell growth or viability in treated and untreated cells.
# [2] = test system: OVCAR-4; experiment: NCI 60 human tumor cell line screen (SRB): OVCAR-4; conditions: OVCAR-4, Ovarian, 48 hours, read-out: GI50 values (μM conc.)
# Procedure: as §1, §2, §3
# [3] = test system: MCF7; experiment: NCI 60 human tumor cell line screen (SRB): MCF7
# Procedure: as §1, §2, §3
# [4] = test system: SF-268; experiment: NCI 60 human tumor cell line screen (SRB): SF-268; conditions: SF-268, CNS, 48 hours, read-out: GI50 values (μM conc.)
# Procedure: as §1, §2, §3
# [5] = test system: OVCAR-3; experiment: NCI 60 human tumor cell line screen (SRB): OVCAR-3; conditions: OVCAR-3, Ovarian, 48 hours, read-out: GI50 values (μM conc.)
# Procedure: as §1, §2, §3
# [6] = test system: SR; experiment: NCI 60 human tumor cell line screen (SRB): SR; conditions: Leukemia, 48 hours, read-out: GI50 values (μM conc.)
# Procedure: as §1, §2, §3
# [7] = test system: SF-295; experiment: NCI 60 human tumor cell line screen (SRB): SF-295; conditions: SF-295, CNS, 48 hours, read-out: GI50 values (μM conc.)
# Procedure: as §1, §2, §3
# [8] = test system: CCRF-CEM; experiment: NCI 60 human tumor cell line screen (SRB): CCRF-CEM; conditions: Leukemia, 48 hours, read-out: GI50 values (μM conc.)
# Procedure: as §1, §2, §3
# [9] = test system: HCT-15; experiment: NCI 60 human tumor cell line screen (SRB): HCT-15; conditions: HCT-15, Colon, 48 hours, read-out: GI50 values (μM conc.)
# Procedure: as §1, §2, §3
# [10] = test system: UACC-257; experiment: NCI 60 human tumor cell line screen (SRB): UACC-257; conditions: UACC-257, Melanoma, 48 hours, read-out: GI50 values (μM conc.)
# Procedure: as §1, §2, §3
# [11] = test system: SW-620; experiment: NCI 60 human tumor cell line screen (SRB): SW-620; conditions: SW-620, Colon, 48 hours, read-out: GI50 values (μM conc.)
# Procedure: as §1, §2, §3
# [12] = test system: PC-3; experiment: NCI 60 human tumor cell line screen (SRB): PC-3; conditions: PC-3, Prostate, 48 hours, read-out: GI50 values (μM conc.)
# Procedure: as §1, §2, §3
# [13] = test system: OVCAR-8; experiment: NCI 60 human tumor cell line screen (SRB): OVCAR-8; conditions: OVCAR-8, Ovarian, 48 hours, read-out: GI50 values (μM conc.)
# Procedure: as §1, §2, §3
# [14] = test system: UACC-62; experiment: NCI 60 human tumor cell line screen (SRB): UACC-62; conditions: UACC-62, Melanoma, 48 hours, read-out: GI50 values (μM conc.)
# Procedure: as §1, §2, §3
# [15] = test system: UO-31; experiment: NCI 60 human tumor cell line screen (SRB): UO-31; conditions: UO-31, Renal, 48 hours, read-out: GI50 values (μM conc.)
# Procedure: as §1, §2, §3
# [16] = test system: IGROV1; experiment: NCI 60 human tumor cell line screen (SRB): IGROV1; conditions: IGROV-1, IGROV1, Ovarian, 48 hours, read-out: GI50 values (μM conc.)
# Procedure: as §1, §2, §3
# [17] = test system: MDA-MB-231/ATCC; experiment: NCI 60 human tumor cell line screen (SRB): MDA-MB-231/ATCC; conditions: Breast, 48 hours, read-out: GI50 values (μM conc.)
# Procedure: as §1, §2, §3
# [18] = test system: MALME-3M; experiment: NCI 60 human tumor cell line screen (SRB): MALME-3M; conditions: Melanoma, 48 hours, read-out: GI50 values (μM conc.)
# Procedure: as §1, §2, §3
# [19] = test system: KM12; experiment: NCI 60 human tumor cell line screen (SRB): KM12; conditions: KM12, Colon, 48 hours, read-out: GI50 values (μM conc.)
# Procedure: as §1, §2, §3
# [20] = test system: HS 578T; experiment: NCI 60 human tumor cell line screen (SRB): HS 578T; conditions: Breast, 48 hours, read-out: GI50 values (μM conc.)
# Procedure: as §1, §2, §3
# [21] = test system: OVCAR-5; experiment: NCI 60 human tumor cell line screen (SRB): OVCAR-5; conditions: OVCAR-5, Ovarian, 48 hours, read-out: GI50 values (μM conc.)
# Procedure: as §1, §2, §3
# [22] = test system: CAKI-1; experiment: NCI 60 human tumor cell line screen (SRB): CAKI-1; conditions: CAKI-1, Renal, 48 hours, read-out: GI50 values (μM conc.)
# Procedure: as §1, §2, §3
# [23] = test system: A498; experiment: NCI 60 human tumor cell line screen (SRB): A498; conditions: A498, Renal, 48 hours, read-out: GI50 values (μM conc.)
# Procedure: as §1, §2, §3
# [24] = test system: U251; experiment: NCI 60 human tumor cell line screen (SRB): U251; conditions: U-251, U251, CNS, 48 hours, read-out: GI50 values (μM conc.)
# Procedure: as §1, §2, §3
# [25] = test system: COLO-205; experiment: NCI 60 human tumor cell line screen (SRB): COLO-205; conditions: COLO-205, Colon, 48 hours, read-out: GI50 values (μM conc.)
# Procedure: as §1, §2, §3
# [26] = test system: SK-OV-3; experiment: NCI 60 human tumor cell line screen (SRB): SK-OV-3; conditions: SK-OV-3, Ovarian, 48 hours, read-out: GI50 values (μM conc.)
# Procedure: as §1, §2, §3
# [27] = test system: NCI-H23; experiment: NCI 60 human tumor cell line screen (SRB): NCI-H23; conditions: NCI-H23, Non-small cell lung, 48 hours, read-out: GI50 values (μM conc.)
# Procedure: as §1, §2, §3
# [28] = test system: M14; experiment: NCI 60 human tumor cell line screen (SRB): M14; conditions: M14, Melanoma, 48 hours, read-out: GI50 values (μM conc.)
# Procedure: as §1, §2, §3
# [29] = test system: MDA-MB-435; experiment: NCI 60 human tumor cell line screen (SRB): MDA-MB-435; conditions: MDA-MB-435, Melanoma, 48 hours, read-out: GI50 values (μM conc.)
# Procedure: as §1, §2, §3
# [30] = MCF7, Breast, 48 hours, SRB, read-out: GI50 values (μM conc.)
# [31] = MCF7, comparison table, read-out: GI50 μM in MCF7
Compound,GI50 [1] [µM],GI50 [2] [µM],"GI50 [3, 30] [µM]","GI50 [3, 31] [µM]",GI50 [4] [µM],GI50 [5] [µM],GI50 [6] [µM],GI50 [7] [µM],GI50 [8] [µM],GI50 [9] [µM],GI50 [10] [µM],GI50 [11] [µM],GI50 [12] [µM],GI50 [13] [µM],GI50 [14] [µM],GI50 [15] [µM],GI50 [16] [µM],GI50 [17] [µM],GI50 [18] [µM],GI50 [19] [µM],also measured
"COc1ccc(Nc2ncccc2/C=C/C(=O)c2cc(OC)c(OC)c(OC)c2)cc1 [6h, (E)-3-(2-(4-Methoxyphenylamino)pyridin-3-yl)-1-(3,4,5-trimethoxyphenyl)prop-2-en-1-one]",1.59,1.62,0.69,0.69,1.77,1.64,0.46,1.85,0.5,1.66,1.53,1.2,2.82,1.56,1.56,1.12,2,1.94,1.4,1.69,GI50 [20]: 2.68 µM; GI50 [21]: 1.97 µM; GI50 [22]: 1.52 µM; GI50 [23]: 3.19 µM; GI50 [24]: 1.27 µM; GI50 [25]: 1.69 µM; GI50 [26]: 2.72 µM; GI50 [27]: 1.72 µM; GI50 [28]: 1.65 µM; GI50 [29]: 1.46 µM
"COc1cc(C(=O)/C=C/c2cccnc2Nc2ccc(Cl)cc2)cc(OC)c1OC [6ax, (E)-3-(2-(4-Chlorophenylamino)pyridin-3-yl)-1-(3,4,5-trimethoxyphenyl)prop-2-en-1-one]",1.63,1.51,1.02,1.02,1.72,1.31,0.77,1.93,0.37,1.49,1.5,0.95,1.44,1.63,1.54,1.32,2.24,1.49,1.91,1.83,GI50 [20]: 3.08 µM; GI50 [21]: 1.74 µM; GI50 [22]: 1.75 µM; GI50 [23]: 1.4 µM; GI50 [24]: 1.25 µM; GI50 [25]: 1.83 µM; GI50 [26]: 1.72 µM; GI50 [27]: 1.58 µM; GI50 [28]: 1.75 µM; GI50 [29]: 1.49 µM
"COc1cc(/C=C/C(=O)c2cccnc2Nc2ccc(F)cc2)cc(OC)c1OC [7f, (E)-1-(2-(4-Fluorophenylamino)pyridin-3-yl)-3-(3,4,5-trimethoxyphenyl)prop-2-en-1-one]",3.32,3.81,2.44,2.44,4.18,2.63,1.93,4.16,2.45,2.27,2.9,3.3,3.95,2.69,2.35,5.62,7.42,3.07,6.9,3.72,GI50 [20]: 3.68 µM; GI50 [21]: 4.1 µM; GI50 [22]: 3.68 µM; GI50 [23]: 2.18 µM; GI50 [24]: 2.78 µM; GI50 [25]: 2.64 µM; GI50 [26]: 3.1 µM; GI50 [27]: 2.34 µM; GI50 [28]: 3.19 µM; GI50 [29]: 3.05 µM
"COc1cc(Nc2ncccc2/C=C/C(=O)c2cc(OC)c(OC)c(OC)c2)cc(OC)c1OC [6v, (E)-1-(3,4,5-Trimethoxyphenyl)-3-(2-(3,4,5-trimethoxyphenylamino)pyridin-3-yl)prop-2-en-1-one]",6.22,9.78,3.97,3.97,8.19,7.45,3.6,4.92,7.08,5.02,8.52,4.81,7.81,6.7,4.96,5.09,12.6,12.6,15.3,6.5,GI50 [20]: 13.2 µM; GI50 [21]: 16.3 µM; GI50 [22]: 4.01 µM; GI50 [23]: 2.64 µM; GI50 [24]: 4.1 µM; GI50 [25]: 4.44 µM; GI50 [26]: 11.1 µM; GI50 [27]: 10.2 µM; GI50 [28]: 8.99 µM; GI50 [29]: 5.63 µM
"COc1ccc(C(=O)/C=C/c2cccnc2Nc2cc(OC)c(OC)c(OC)c2)cc1 [6z, (E)-1-(4-Methoxyphenyl)-3-(2-(3,4,5-trimethoxyphenylamino)pyridin-3-yl)prop-2-en-1-one]",2.59,1.78,0.18,0.18,3.13,0.48,0.09,2.91,0.71,0.91,3.63,0.39,1.13,2.2,1.9,1.44,4.64,2.15,3.24,0.46,GI50 [20]: 6.38 µM; GI50 [21]: 1.95 µM; GI50 [22]: 2.26 µM; GI50 [23]: 4.28 µM; GI50 [24]: 1.27 µM; GI50 [25]: 1.54 µM; GI50 [26]: 3.15 µM; GI50 [27]: 4.02 µM; GI50 [28]: 2.55 µM; GI50 [29]: 0.74 µM
"COc1cc(C(=O)/C=C/c2cccnc2Nc2ccccc2)cc(OC)c1OC [6a, (E)-3-(2-(Phenylamino)pyridin-3-yl)-1-(3,4,5-trimethoxyphenyl)prop-2-en-1-one]",0.72,1.45,0.35,0.35,1.55,0.42,0.34,1.87,0.32,0.74,1.51,0.42,1.1,1.27,1.29,1.19,2.37,1.4,1.92,0.92,GI50 [20]: 2.15 µM; GI50 [21]: 1.54 µM; GI50 [22]: 1.16 µM; GI50 [23]: 1.42 µM; GI50 [24]: 1.12 µM; GI50 [25]: 1.29 µM; GI50 [26]: 1.6 µM; GI50 [27]: 1.43 µM; GI50 [28]: 1.5 µM; GI50 [29]: 0.63 µM
